Reference: US20060014722A1, “Per (3,6-anhydro) cyclodextrin derivatives, their preparation and use thereof for separating ions, in particular chromium and manganese anions” (priority 2002, published 2006)

Assays:
[1] = Ion-exchange plate chromatography (retardation factor Rf), complexing of chromium anions; format: binding; conditions: Polygram Ionex 25-SA-Na plates charged with the ion, developed four times in water
From the text: (§1) The use of thin layer chromatography plates charged with ions allows rapid evaluation of the complexing of these ions by the species to be evaluated; in the present case, plates of the Polygram Ionex 25-SA-Na type (Macherey-Nagel, ref.: 80613) charged with various counterions to be evaluated.
(§2) Thus, chromatography plates are used onto which are respectively bound the ions acetyl COO^− (designated Ac in FIG. 1), PO4^3−, NO3^−, Cr2O7^2−, Cl^−, SO4^2^−, HCO3^−, BO3^−, WO4^2−, MnO4^−, CrO4^2−, AsO4^2−, AlO2^−.
(§3) In each test, there is introduced onto the plate the compound of Example 1 which will be retained on the plate if it complexes the ions. […] The lower the Rf, for a given ion, the more the ion in question will form a complex with the cyclodextrin compound.

Solubility in water = format: physicochemical
[2] = Ion-exchange plate chromatography, complexing of cations; format: binding; conditions: 18 cations tested on ion-exchange plates
From the text: as §1, §3
Likewise, tests were carried out to see whether the derivatives according to the invention were capable of complexing cations. Tests were carried out with the following ions:
Na^+, K^+, Cs^+,NH4^+,Ca^2+,Ba^2+, Al^3+, Fe^3+, Co^2+, Ni^2+, Cu^2+, Ag^2+, Zn^2+, Hg^2+, Pb^2+, La^3+, Gd^3+, UO2^2+.

[3] = Ion-exchange plate chromatography (retardation factor Rf), complexing of manganese anions; format: binding; conditions: Polygram Ionex 25-SA-Na plates charged with the ion, developed four times in water
From the text: as §1, §2, §3

For “per(3,6-anhydro)cyclomaltohexaose per-2-O-ethylcarbamate [Example 1]”, the “complexing rate for chromium ions (Rf, FIG. 1)” value [1] was “high complexing rate”, the solubility in water (Solubility in water) was “low solubility in water” and the “complexing of cations (Rf, FIG. 2)” value [2] was “none of these cations efficiently forms a complex”. For the same substance, the “complexing rate for manganese ions (Rf, FIG. 1)” value [3] was “high complexing rate”.
